Experimental data from patent publication US10131652B2, “Pyrimidinyloxy benzene derivatives as herbicides” (E. I. DU PONT DE NEMOURS AND COMPANY, priority 2014, dated 2018).
Like-named read-outs stand apart in the source and are kept apart here.

Legend:
Assay type in all cases: in vivo
[1] = tested on: blackgrass (Alopecurus myosuroides); experiment: Test B postemergence plant response
Outline: (§1)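 Injury was assessed visually about 10 days after treatment, scored from 0 (no effect) to 100 (complete control) by comparison with untreated controls. Test chemicals had been applied postemergence to potted plants at the one- to two-leaf stage, grown in loam soil and sand in a greenhouse.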

[2] = tested on: galium (catchweed bedstraw, Galium aparine); experiment: Test B postemergence plant response
Outline: as §1

[3] = tested on: chickweed (common chickweed, Stellaria media); experiment: Test D postemergence plant response; conditions: for pest or weed control at 16 g/ha / pest or weed control at 31 g/ha / pest or weed control at 62 g/ha / pest or weed control at 125 g/ha: Stellaria media, post-emergence; for pest or weed control at 16 g/ha / pest or weed control at 31 g/ha / Chickweed plant response rating: scale 0 to 100 (0 no effect, 100 complete control); for pest or weed control at 16 g/ha / pest or weed control at 31 g/ha: read-out: Chickweed plant response rating; for pest or weed control at 62 g/ha / pest or weed control at 125 g/ha / Plant response rating, Chickweed: scale 0 to 100, 0 no effect, 100 complete control; for pest or weed control at 62 g/ha / pest or weed control at 125 g/ha: read-out: Plant response rating, Chickweed
Outline: (§2)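 Plants grown in pots of peat moss–vermiculite medium with wetting agent and starter nutrients received postemergence applications of the formulated test chemicals at 2 to 18 cm height (1- to 4-leaf stage). After 13 to 15 days in a greenhouse, injury was scored visually against untreated controls, 0 (no effect) to 100 (complete control).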

kochia (Kochia scoparia) = experiment: Test D postemergence plant response; conditions: for pest or weed control at 16 g/ha / pest or weed control at 31 g/ha / pest or weed control at 62 g/ha / pest or weed control at 125 g/ha: Bassia scoparia, post-emergence; for pest or weed control at 16 g/ha / pest or weed control at 31 g/ha / Kochia plant response rating: scale 0 to 100 (0 no effect, 100 complete control); for pest or weed control at 16 g/ha / pest or weed control at 31 g/ha: read-out: Kochia plant response rating; for pest or weed control at 62 g/ha / pest or weed control at 125 g/ha / Plant response rating, Kochia: scale 0 to 100, 0 no effect, 100 complete control; for pest or weed control at 62 g/ha / pest or weed control at 125 g/ha: read-out: Plant response rating, Kochia
Outline: as §2

wild oat (Avena fatua) = experiment: Test D postemergence plant response; conditions: for pest or weed control at 16 g/ha / pest or weed control at 31 g/ha / pest or weed control at 62 g/ha / pest or weed control at 125 g/ha: Avena fatua, post-emergence; for pest or weed control at 16 g/ha / pest or weed control at 31 g/ha / Oat, Wild plant response rating: scale 0 to 100 (0 no effect, 100 complete control); for pest or weed control at 16 g/ha / pest or weed control at 31 g/ha: read-out: Oat, Wild plant response rating; for pest or weed control at 62 g/ha / pest or weed control at 125 g/ha / Plant response rating, Oat, Wild: scale 0 to 100, 0 no effect, 100 complete control; for pest or weed control at 62 g/ha / pest or weed control at 125 g/ha: read-out: Plant response rating, Oat, Wild
Outline: as §2

[4] = tested on: waterhemp_RES1 (ALS & Triazine resistant common waterhemp, Amaranthus rudis); experiment: Test F postemergence plant response; conditions: scale 0 to 100
Procedure: (§3) At the same time, plants from these crop and weed species and also waterhemp_RES1, (ALS & Triazine resistant common waterhemp, Amaranthus rudis), and waterhemp_RES2, (ALS & HPPD resistant common waterhemp, Amaranthus rudis) were treated with postemergence applications of test chemicals formulated in the same manner. Plants ranged in height from 2 to 18 cm for postemergence treatments (1- to 4-leaf stage).
(§4) Treated plants and controls were maintained in a greenhouse for 14 to 21 days, after which time all species were compared to controls and visually evaluated. Plant response ratings, summarized in Table F, are based on a scale of 0 to 100 where 0 is no effect and 100 is complete control. A dash (-) response means no test result.

[5] = tested on: waterhemp_RES2 (ALS & HPPD resistant common waterhemp, Amaranthus rudis); experiment: Test F postemergence plant response; conditions: scale 0 to 100
Procedure: as §3, §4

[6] = tested on: large (Lg) crabgrass (Digitaria sanguinalis); experiment: Test B pre-/postemergence plant response; conditions: Digitaria sanguinalis, 240 h, read-out: Plant response rating, Crabgrass, Large; for pest or weed control at 125 g/ha: 125 g ai/ha; for pest or weed control at 500 g/ha: 500 g ai/ha
Outline: (§5)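 Greenhouse pots, loam/sand soil; compound formulated with surfactant in non-phytotoxic solvent. Preemergence soil spray and postemergence spray at 1–2 leaf stage run simultaneously. Visual injury, 0–100, about 10 days post-treatment.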

[7] = tested on: morningglory (Ipomoea spp.); experiment: Test B pre-/postemergence plant response; conditions: Ipomoea, 240 h, read-out: Plant response rating, Morningglory; for pest or weed control at 125 g/ha: 125 g ai/ha; for pest or weed control at 500 g/ha: 500 g ai/ha
Outline: as §5

[8] = tested on: velvetleaf (Abutilon theophrasti); experiment: Test B pre-/postemergence plant response; conditions: Abutilon theophrasti, 240 h, read-out: Plant response rating, Velvetleaf; for pest or weed control at 125 g/ha: 125 g ai/ha; for pest or weed control at 500 g/ha: 500 g ai/ha
Outline: as §5

[9] = 125 g ai/ha, postemergence, 0 to 100 scale, 0 no effect, 100 complete control
[10] = Postemergence, 500 g ai/ha, 0 to 100 scale (0 no effect, 100 complete control)
[11] = Postemergence, 1000 g ai/ha, 0 to 100 scale (0 no effect, 100 complete control)
[12] = post-emergence, postemergence, 0 to 100 scale, 0 no effect, 100 complete control
[13] = post-emergence, Postemergence, 0 to 100 scale (0 no effect, 100 complete control)
[14] = pre-emergence, Preemergence, 0 to 100 scale where 0 is no effect and 100 is complete control

FC(F)c1cc(-c2ccccc2Oc2ncc(Cl)cn2)on1 [Compound 53, 5-chloro-2-[2-[3-(difluoromethyl)-5-isoxazolyl]phenoxy]pyrimidine]
Plant response rating, Blackgrass [1, 9]: 100
Plant response rating, Blackgrass [1, 10]: 100
Plant response rating, Galium [2, 9]: 100
Plant response rating, Galium [2, 10]: 100
pest or weed control at 16 g/ha ([3]; 16 g ai/ha): 50%
pest or weed control at 31 g/ha ([3]; 31 g ai/ha): 80%
pest or weed control at 62 g/ha ([3]; 62 g ai/ha): 80%
pest or weed control at 125 g/ha ([3]; 125 g ai/ha): 90%
pest or weed control at 16 g/ha (kochia (Kochia scoparia); 16 g ai/ha): 90%
pest or weed control at 31 g/ha (kochia (Kochia scoparia); 31 g ai/ha): 100%
pest or weed control at 62 g/ha (kochia (Kochia scoparia); 62 g ai/ha): 100%
pest or weed control at 125 g/ha (kochia (Kochia scoparia); 125 g ai/ha): 100%
pest or weed control at 16 g/ha (wild oat (Avena fatua); 16 g ai/ha): 5%
pest or weed control at 31 g/ha (wild oat (Avena fatua); 31 g ai/ha): 10%
pest or weed control at 62 g/ha (wild oat (Avena fatua); 62 g ai/ha): 30%
pest or weed control at 125 g/ha (wild oat (Avena fatua); 125 g ai/ha): 20%
Plant response rating, Waterhemp_RES1 ([4]; 8 g ai/ha Postemergence): 70
Plant response rating, Waterhemp_RES1 ([4]; 16 g ai/ha Postemergence): 85
Plant response rating, Waterhemp_RES1 ([4]; 31 g ai/ha Postemergence): 90
Plant response rating, Waterhemp_RES1 ([4]; 62 g ai/ha Postemergence): 95
Plant response rating, Waterhemp_RES1 ([4]; 125 g ai/ha Postemergence): 100
Plant response rating, Waterhemp_RES2 ([5]; 8 g ai/ha Postemergence): 70
Plant response rating, Waterhemp_RES2 ([5]; 16 g ai/ha Postemergence): 80
Plant response rating, Waterhemp_RES2 ([5]; 31 g ai/ha Postemergence): 90
Plant response rating, Waterhemp_RES2 ([5]; 62 g ai/ha Postemergence): 100
Plant response rating, Waterhemp_RES2 ([5]; 125 g ai/ha Postemergence): 100

Fc1cccc(Oc2ncc(Cl)cn2)c1-c1cc(C(F)F)on1 [Compound 55, 5-chloro-2-[2-[5-(difluoromethyl)-3-isoxazolyl]-3-fluorophenoxy]pyrimidine]
Plant response rating, Blackgrass [1, 11]: 100
Plant response rating, Galium [2, 11]: 100
pest or weed control at 16 g/ha ([3]; 16 g ai/ha): 70%
pest or weed control at 31 g/ha ([3]; 31 g ai/ha): 75%
pest or weed control at 62 g/ha ([3]; 62 g ai/ha): 98%
pest or weed control at 125 g/ha ([3]; 125 g ai/ha): 100%
pest or weed control at 16 g/ha (kochia (Kochia scoparia); 16 g ai/ha): 98%
pest or weed control at 31 g/ha (kochia (Kochia scoparia); 31 g ai/ha): 100%
pest or weed control at 62 g/ha (kochia (Kochia scoparia); 62 g ai/ha): 100%
pest or weed control at 125 g/ha (kochia (Kochia scoparia); 125 g ai/ha): 100%
pest or weed control at 16 g/ha (wild oat (Avena fatua); 16 g ai/ha): 5%
pest or weed control at 31 g/ha (wild oat (Avena fatua); 31 g ai/ha): 15%
pest or weed control at 62 g/ha (wild oat (Avena fatua); 62 g ai/ha): 40%
pest or weed control at 125 g/ha (wild oat (Avena fatua); 125 g ai/ha): 40%
Plant response rating, Waterhemp_RES1 ([4]; 31 g ai/ha Postemergence): 100
Plant response rating, Waterhemp_RES1 ([4]; 62 g ai/ha Postemergence): 100
Plant response rating, Waterhemp_RES2 ([5]; 31 g ai/ha Postemergence): 100
Plant response rating, Waterhemp_RES2 ([5]; 62 g ai/ha Postemergence): 100

Cc1cc(-c2ccccc2Oc2ncc(Cl)cn2)on1 [Compound 58]
Plant response rating, Blackgrass [1, 9]: 70
Plant response rating, Blackgrass [1, 10]: 90
Plant response rating, Galium [2, 9]: 100
Plant response rating, Galium [2, 10]: 100
Chickweed plant response rating ([3]; 16 g ai/ha): 5
Chickweed plant response rating ([3]; 31 g ai/ha): 10
Plant response rating, Chickweed ([3]; 62 g ai/ha): 15
Plant response rating, Chickweed ([3]; 125 g ai/ha): 30
Kochia plant response rating (kochia (Kochia scoparia); 16 g ai/ha): 35
Kochia plant response rating (kochia (Kochia scoparia); 31 g ai/ha): 50
Plant response rating, Kochia (kochia (Kochia scoparia); 62 g ai/ha): 60
Plant response rating, Kochia (kochia (Kochia scoparia); 125 g ai/ha): 80
Oat, Wild plant response rating (wild oat (Avena fatua); 16 g ai/ha): 0
Oat, Wild plant response rating (wild oat (Avena fatua); 31 g ai/ha): 0
Plant response rating, Oat, Wild (wild oat (Avena fatua); 62 g ai/ha): 0
Plant response rating, Oat, Wild (wild oat (Avena fatua); 125 g ai/ha): 0
Plant response rating, Waterhemp_RES1 ([4]; 8 g ai/ha Postemergence): 10
Plant response rating, Waterhemp_RES1 ([4]; 16 g ai/ha Postemergence): 20
Plant response rating, Waterhemp_RES1 ([4]; 31 g ai/ha Postemergence): 65
Plant response rating, Waterhemp_RES1 ([4]; 62 g ai/ha Postemergence): 70
Plant response rating, Waterhemp_RES1 ([4]; 125 g ai/ha Postemergence): 75
Plant response rating, Waterhemp_RES2 ([5]; 8 g ai/ha Postemergence): 65
Plant response rating, Waterhemp_RES2 ([5]; 16 g ai/ha Postemergence): 60
Plant response rating, Waterhemp_RES2 ([5]; 31 g ai/ha Postemergence): 70
Plant response rating, Waterhemp_RES2 ([5]; 62 g ai/ha Postemergence): 75
Plant response rating, Waterhemp_RES2 ([5]; 125 g ai/ha Postemergence): 80

FC(F)(F)c1cc(-c2ccccc2Oc2ncc(Cl)cn2)on1 [Compound 63, 5-chloro-2-[2-[3-(trifluoromethyl)-5-isoxazolyl]phenoxy]pyrimidine]
pest or weed control at 125 g/ha [6, 12]: 80%
pest or weed control at 500 g/ha [6, 13]: 90%
pest or weed control at 125 g/ha [6, 14]: 100%
pest or weed control at 500 g/ha [6, 14]: 100%
pest or weed control at 125 g/ha [7, 12]: 100%
pest or weed control at 500 g/ha [7, 13]: 100%
pest or weed control at 125 g/ha [7, 14]: 30%
pest or weed control at 500 g/ha [7, 14]: 60%
pest or weed control at 125 g/ha [8, 12]: 100%
pest or weed control at 500 g/ha [8, 13]: 100%
pest or weed control at 125 g/ha [8, 14]: 70%
pest or weed control at 500 g/ha [8, 14]: 90%
pest or weed control at 16 g/ha ([3]; 16 g ai/ha): 60%
pest or weed control at 31 g/ha ([3]; 31 g ai/ha): 65%
pest or weed control at 62 g/ha ([3]; 62 g ai/ha): 98%
pest or weed control at 125 g/ha ([3]; 125 g ai/ha): 100%
pest or weed control at 16 g/ha (kochia (Kochia scoparia); 16 g ai/ha): 90%
pest or weed control at 31 g/ha (kochia (Kochia scoparia); 31 g ai/ha): 95%
pest or weed control at 62 g/ha (kochia (Kochia scoparia); 62 g ai/ha): 98%
pest or weed control at 125 g/ha (kochia (Kochia scoparia); 125 g ai/ha): 100%
pest or weed control at 16 g/ha (wild oat (Avena fatua); 16 g ai/ha): 0%
pest or weed control at 31 g/ha (wild oat (Avena fatua); 31 g ai/ha): 20%
pest or weed control at 62 g/ha (wild oat (Avena fatua); 62 g ai/ha): 25%
pest or weed control at 125 g/ha (wild oat (Avena fatua); 125 g ai/ha): 35%
